# How the values were obtained:
# [1] = tested on: oil field isolated anaerobic SRB consortium; experiment: Biocidal efficacy (MBC) against SRB, 40° C. for 24 hour; format: cell-based, sulfate reducing bacteria (SRB); conditions: alone or in the combination, minimum tested biocide concentration for bacteria kill, 10^6 to 10^7 CFU/mL
# Description: The synergy indexes reported in the following examples are calculated using the following equation: Synergy Index=Ca/CA+Cb/CB where Ca: Concentration of biocide A required to achieve a certain level or complete bacterial kill when used in combination; CA: Concentration of biocide A required to achieve a certain level or complete bacterial kill when used alone; Cb: Concentration of biocide B required to achieve a certain level or complete bacterial kill when used in combination; and CB: Concentration of biocide B required to achieve a certain level or complete bacterial kill when used alone. A synergy index (SI) of 1 indicates additivity, a synergy index of less than 1 indicates synergy, and a synergy index greater than 1 indicates antagonism. Various methods known to those skilled in the art can be used for evaluating biocidal efficacy. In the examples below, aliquots of the biocide-treated samples are removed at predetermined time points and the biocide concentration required to achieve a certain level or complete bacterial kill is determined by culture-based methods including serial dilution. […] After the mixtures are incubated at 40° C. for 24 hour, the biocidal efficacy is determined by minimum tested biocide concentration for bacteria kill in the aliquots (MBC). […]
# oilfield SRB consortium = experiment: Biocidal efficacy against SRB under high temperature and sulfide-rich conditions; format: cell-based, sulfate reducing bacteria (SRB); conditions: alone or in the combination, 80° C. anaerobic, daily challenge with SRB and 10 ppm sulfide
# Description: The synergy indexes reported in the following examples are calculated using the following equation: Synergy Index=Ca/CA+Cb/CB where Ca: Concentration of biocide A required to achieve a certain level or complete bacterial kill when used in combination; CA: Concentration of biocide A required to achieve a certain level or complete bacterial kill when used alone; Cb: Concentration of biocide B required to achieve a certain level or complete bacterial kill when used in combination; and CB: Concentration of biocide B required to achieve a certain level or complete bacterial kill when used alone. […] In the examples below, aliquots of the biocide-treated samples are removed at predetermined time points and the biocide concentration required to achieve a certain level or complete bacterial kill is determined by culture-based methods including serial dilution. […] After incubation for 2 h the biocidal efficacy is evaluated against the field SRB consortium at 40° C. for 2 h. After incubation for 7 days the biocidal efficacy are evaluated again for 24 h. The biocidal efficacy is determined by the lowest testing biocide dosage concentration required to achieve a 3 log 10 or greater bacterial reduction, of both 2 hours and 7 days heat and SRB-sulfide exposure. Synergy Index is then calculated. […]
SMILES,MBC (active ppm) TA ([1]; concentration of TA),Dosage required for 3log10 bacterial reduction of both 2 h and 7 day heat and SRB-sulfide exposure (active ppm) TA (oilfield SRB consortium; concentration of TA),MBC (active ppm) BNPD ([1]; concentration of BNPD),Dosage required for 3log10 bacterial reduction of both 2 h and 7 day heat and SRB-sulfide exposure (active ppm) BNPD (oilfield SRB consortium; concentration of BNPD)
"O=[N+]([O-])C(CO)(CO)CO [0:1, tris(hydroxymethyl)nitromethane]",36.5 active ppm,360.0 active ppm,–,–
"O=[N+]([O-])C(Br)(CO)CO [1:0, 2-bromo-2-nitro-1,3-propanediol]",–,–,3.5 active ppm,180.0 active ppm

# Reference: patent US8993638B2, “Brominated nitroalkanol compositions and their use as biocides” (Dow Global Technologies LLC, priority 2009, dated 2015)
